# Experimental data taken from patent US8313752B2, “Macrocyclic lactone combination compositions, vaccines and methods for producing same” (Merial Limited, priority 2009, dated 2012).
# Where “and” joins values, the source holds several entries; their conditions need not be identical. Equal values may be shown once. Read-outs that look alike come from different tables or passages of the source.
# Legend:
# [1] = ML residues in milk of lactating dairy cows after single IM dose of ML/vaccine combination (LC-MS/MS); assay type: in vivo, Dairy cows (Friesian and Friesian cross); settings: for Residues in milk at 7 days after treatment relative to ACVM MRLs / Residues in milk at 21 days after treatment relative to LOQ: 0.3 and 0.4 mg/kg IM; for concentration at 21 day / concentration at 7 day / concentration at 14 day: female, Friesian and Friesian cross, cattle, intramuscular; for concentration at 21 day / ML residue in milk, Day 7 / ML residue in milk, Day 14 / ML residue in milk, Day 21 / concentration at 7 day / concentration at 14 day / ML residue in milk fat, Day 7 / ML residue in milk fat, Day 14 / ML residue in milk fat, Day 21: individual cows
# Description: (§1) Study Objectives: 1) To measure ML residues in milk and tissues of lactating dairy cows after a single dose of an experimental formulation of eprinomectin, ivermectin, moxidectin or doramectin combined with an inactivated rotavirus, coronavirus and Escherichia coli vaccine was administered by intramuscular injection at 0.3 and 0.4 mg macrocyclic lactone/kg bodyweight. 2) To evaluate local tissue irritancy of the experimental formulations when administered to cattle by intramuscular injection.
# Experimental formulations of each of four macrocyclic lactones were separately combined with equal parts of a registered vaccine, Rotavec® Corona (Schering-Plough). The recommended dose of Rotavec® Corona is 2 mL per animal, which was diluted to produce 4 mL of ML/vaccine combination. Each ML/vaccine combination contained 40 mg/mL macrocyclic lactone.
# Methods: On day −5, fifty-four animals were identified for screening and were checked for mastitis by palpation of the mammary gland, visualization of the mammary secretions and Rapid Mastitis Test (RMT, Immucell, Portland, Me.). Individual milk samples were collected for somatic cell count (SCC) and thirty-three animals that met the inclusion criteria were selected for the study. Of the thirty-three animals, the cow with the highest average daily milk yield, as assessed over a seven-day period, was allocated as the control. The remaining thirty-two animals were ranked from highest to lowest on average daily milk yield, over the same time period, and divided into four blocks of eight animals each. A random number was generated for each animal using the Microsoft Excel random number generator function. Within each block, the lowest random number was allocated to Group 1, the second lowest to Group 2 and sequentially through to Group 8, creating eight groups of four animals each (Table 18).
# On Day 0, the cows were weighed and blood samples were collected from all animals in Groups 1 and 2 for use in a subsequent plasma eprinomectin assay. The blood samples were stored frozen at or colder than −18° C. pending laboratory analysis. Each animal was treated with the indicated formulation at the appropriate dose rate. Doses were calculated based upon the animal's Day 0 bodyweight to provide approximately 40 mg ML/mL. Calculated doses were rounded up to the nearest 0.2 mL.
# (§2) The formulations were administered by deep intramuscular injection in the anterior neck region. Injection sites were clean and dry and inspected for lesions prior to injection. Injections were administered with a different 10 mL syringe for each product. A sterile 18 gauge 1½ inch needle was used for each injection. The time of treatment was recorded. Evidence of pain on injection was assessed.
# Blood samples were collected from all animals in Groups 1 and 2 for plasma eprinomectin assay on Days 1, 3 and 7 and stored frozen as described. The time of blood collection was recorded. Herd test equipment (De Laval) was used to collect an approximately 2% sample representative of the entire milking for each individual cow at the morning milking on each of Days 1-10 following treatment, and at the morning milking on Days 14, 21 and 35. Duplicate subsamples were decanted for each cow in Groups 1-4 and 7-9 and triplicate subsamples were decanted for each cow in Groups 5-6. Each sample from treated animals measured approximately 30 mL. The start and finish times for each milking of the 33 study animals were recorded to give an estimate of the actual time of milk sample collection.
# The study animals were milked after the main herd. The milk line was thoroughly flushed with cold water prior to milking the study animals. The herd test equipment was cleaned between samplings. It was washed “in-line” with the milking plant wash. Sample vessels were then further cleaned through a dishwasher. The sampler connections were further cleaned by soaking in hot acid, then rinsed. Milk yields at each milking at which samples were collected were measured and recorded. […]
# [2] = cited from earlier work
# cattle = assay: Local tissue irritancy / injection site reactions after intramuscular injection; assay type: in vivo, Dairy cows (Friesian and Friesian cross); settings: for Injection site reactions, Count, Day 1 / Injection site reactions, Count, Day 3 / Injection site reactions, Count, Day 7 / Injection site reactions, Count, Day 14 / Injection site reactions, Count, Day 21: cows with reaction in group of 4; for Animals with injection site reactions that persisted at least until 21 days after treatment: group of 4 cows
# Description: as §1, §2
# Injection sites were examined by inspection and palpation at the morning milking on Days 1, 3, 7 and 14. Any visible or palpable reactions were described and measured (width, length and depth). Reactions that persisted after day 14 were re-evaluated on Day 21.
# [3] = lactating cattle; cited from earlier work
# [4] = milk, 0.3 mg/kg, nominal 0.3 mg/kg single IM dose of ML/Rotavec Corona combination, milk (whole milk), read-out: ML residue in milk, Day 21
# [5] = nominal 0.3 mg/kg single IM dose of ML/Rotavec Corona combination, milk (whole milk)
# [6] = nominal 0.4 mg/kg single IM dose of ML/Rotavec Corona combination, milk (whole milk)
# [7] = administered topically to cattle
# [8] = nominal 0.3 mg/kg single IM dose of ML/Rotavec Corona combination, milk fat
# [9] = nominal 0.4 mg/kg single IM dose of ML/Rotavec Corona combination, milk fat
smiles,measurement,setting,value
CO[C@H]1C[C@H](O[C@H]2[C@H](C)O[C@@H](O[C@@H]3/C(C)=C/C[C@@H]4C[C@@H](C[C@]5(C=C[C@H](C)[C@@H](C6CCCCC6)O5)O4)OC(=O)[C@@H]4C=C(C)[C@@H](O)[C@H]5OC/C(=C\C=C\[C@@H]3C)[C@]54O)C[C@@H]2OC)O[C@@H](C)[C@@H]1O [Doramectin],Residues in milk at 7 days after treatment relative to ACVM MRLs,[1],near or above the ACVM MRLs
same,Residues in milk at 21 days after treatment relative to LOQ,[1],above the LOQ
same,concentration at 21 day,[1]; [4],< 1 ng/g
same,concentration at 21 day,"[1]; milk, 0.4 mg/kg, nominal 0.4 mg/kg single IM dose of ML/Rotavec Corona combination, milk (whole milk), read-out: ML residue in milk, Day 21",1 ng/g
same,"ML residue in milk, Day 7",[1]; [5],0.0058 mg/kg and 0.0037 mg/kg and 0.0077 mg/kg and 0.0079 mg/kg
same,"ML residue in milk, Day 14",[1]; [5],<0.0010 mg/kg and 0.0012 mg/kg and 0.0031 mg/kg and 0.0015 mg/kg
same,"ML residue in milk, Day 21",[1]; [5],<0.0010 mg/kg (2×) and 0.0020 mg/kg
same,"ML residue in milk, Day 7",[1]; [6],0.014 mg/kg and 0.0061 mg/kg and 0.011 mg/kg and 0.0056 mg/kg
same,"ML residue in milk, Day 14",[1]; [6],0.0025 mg/kg (2×) and 0.0028 mg/kg and <0.0010 mg/kg
same,"ML residue in milk, Day 21",[1]; [6],0.0014 mg/kg (2×) and <0.0010 mg/kg
CCC(C)C1OC2(C=CC1C)CC1CC(CC=C(C)C(OC3CC(OC)C(OC4CC(OC)C(NC(C)=O)C(C)O4)C(C)O3)C(C)C=CC=C3COC4C(O)C(C)=CC(C(=O)O1)C34O)O2 (stereo not shown) [Eprinomectin],Residues in milk at 14 days after treatment relative to LOQ,[1]; all study animals (0.3 and 0.4 mg/kg IM),below the limit of quantitation (LOQ)
same,Residues in milk at 7 days after treatment,"[1]; all study animals (0.3 and 0.4 mg/kg IM), compared with MRL",< 0.02 mg/kg
same,Withholding period (milk),[1]; estimated from residue data relative to the MRLs that apply in Europe,7 days
same,"ML residue in milk, Day 14",[1]; [5],<0.0010 mg/kg
same,"ML residue in milk, Day 21",[1]; [5],<0.0010 mg/kg
same,"ML residue in milk, Day 7","[1]; nominal 0.3 mg/kg single IM dose of ML/Rotavec Corona combination, milk (whole milk), listed as Eprinomectin B1a",0.0012 mg/kg and 0.0017 mg/kg and <0.0010 mg/kg and 0.0023 mg/kg
same,"ML residue in milk, Day 14",[1]; [6],<0.0010 mg/kg
same,"ML residue in milk, Day 21",[1]; [6],<0.0010 mg/kg
same,"ML residue in milk, Day 7","[1]; nominal 0.4 mg/kg single IM dose of ML/Rotavec Corona combination, milk (whole milk), listed as Eprinomectin B1a",<0.0010 mg/kg (2×) and 0.0021 mg/kg and 0.0013 mg/kg
same,Parent compound share of residues in feces,[2]; [7],more than 85%
same,Parent compound share of residues in tissues,[2]; [7],90%
same,Milk-plasma coefficient,[2]; cattle,≤ 0.2
same,"Injection site reactions, Count, Day 1",cattle; 0.3 mg/kg IM,0
same,"Injection site reactions, Count, Day 3",cattle; 0.3 mg/kg IM,1
same,"Injection site reactions, Count, Day 7",cattle; 0.3 mg/kg IM,1
same,"Injection site reactions, Count, Day 14",cattle; 0.3 mg/kg IM,1
same,"Injection site reactions, Count, Day 21",cattle; 0.3 mg/kg IM,1
same,Animals with injection site reactions that persisted at least until 21 days after treatment,cattle; 0.3 mg/kg IM,One
same,"Injection site reactions, Count, Day 1",cattle; 0.4 mg/kg IM,2
same,"Injection site reactions, Count, Day 3",cattle; 0.4 mg/kg IM,2
same,"Injection site reactions, Count, Day 7",cattle; 0.4 mg/kg IM,1
same,"Injection site reactions, Count, Day 14",cattle; 0.4 mg/kg IM,1
same,"Injection site reactions, Count, Day 21",cattle; 0.4 mg/kg IM,1
same,Animals with injection site reactions that persisted at least until 21 days after treatment,cattle; 0.4 mg/kg IM,One
same,"Elimination in milk, fold less than ivermectin or moxidectin",[3],50 fold
same,Share of the total dose eliminated in the milk,[3],0.1%
"CO/N=C1\C[C@]2(C[C@@H]3C[C@@H](C/C=C(\C)C[C@@H](C)/C=C/C=C4\CO[C@@H]5[C@H](O)C(C)=C[C@@H](C(=O)O3)[C@]45O)O2)O[C@H](/C(C)=C/C(C)C)[C@H]1C [Moxidectin, moxidectin]",Residues in milk at 7 days after treatment relative to ACVM MRLs,[1],near or above the ACVM MRLs
same,Residues in milk at 21 days after treatment relative to LOQ,[1],above the LOQ
same,concentration at 7 day,"[1]; milk fat, 0.3 mg/kg, nominal 0.3 mg/kg single IM dose of ML/Rotavec Corona combination, milk fat, read-out: ML residue in milk fat, Day 7",800 ng/g
same,concentration at 14 day,"[1]; milk fat, 0.3 mg/kg, nominal 0.3 mg/kg single IM dose of ML/Rotavec Corona combination, milk fat, read-out: ML residue in milk fat, Day 14",140 ng/g
same,concentration at 21 day,"[1]; milk fat, 0.3 mg/kg, nominal 0.3 mg/kg single IM dose of ML/Rotavec Corona combination, milk fat, read-out: ML residue in milk fat, Day 21",59 ng/g
same,concentration at 7 day,"[1]; milk fat, 0.4 mg/kg, nominal 0.4 mg/kg single IM dose of ML/Rotavec Corona combination, milk fat, read-out: ML residue in milk fat, Day 7",860 ng/g
same,concentration at 7 day,"[1]; milk, 0.3 mg/kg, nominal 0.3 mg/kg single IM dose of ML/Rotavec Corona combination, milk (whole milk), read-out: ML residue in milk, Day 7",40 ng/g
same,concentration at 14 day,"[1]; milk, 0.3 mg/kg, nominal 0.3 mg/kg single IM dose of ML/Rotavec Corona combination, milk (whole milk), read-out: ML residue in milk, Day 14",7.8 ng/g
same,concentration at 21 day,[1]; [4],2.6 ng/g
same,concentration at 7 day,"[1]; milk, 0.4 mg/kg, nominal 0.4 mg/kg single IM dose of ML/Rotavec Corona combination, milk (whole milk), read-out: ML residue in milk, Day 7",50 ng/g
same,"ML residue in milk, Day 7",[1]; [5],0.063 mg/kg and 0.042 mg/kg and 0.034 mg/kg
same,"ML residue in milk, Day 14",[1]; [5],0.010 mg/kg and 0.0099 mg/kg and 0.0079 mg/kg
same,"ML residue in milk, Day 21",[1]; [5],0.0040 mg/kg and 0.0031 mg/kg and 0.0041 mg/kg
same,"ML residue in milk fat, Day 7",[1]; [8],1.1 mg/kg and 1.0 mg/kg and 0.75 mg/kg
same,"ML residue in milk fat, Day 14",[1]; [8],0.26 mg/kg and 0.24 mg/kg and 0.18 mg/kg
same,"ML residue in milk fat, Day 21",[1]; [8],0.080 mg/kg and 0.068 mg/kg and 0.075 mg/kg
same,"ML residue in milk, Day 7",[1]; [6],0.044 mg/kg and 0.056 mg/kg and 0.037 mg/kg
same,"ML residue in milk, Day 14",[1]; [6],0.0081 mg/kg and 0.012 mg/kg and 0.015 mg/kg and 0.0069 mg/kg
same,"ML residue in milk, Day 21",[1]; [6],0.0055 mg/kg (2×) and 0.0037 mg/kg and 0.0023 mg/kg
same,"ML residue in milk fat, Day 7",[1]; [9],1.2 mg/kg and 1.5 mg/kg and 1.0 mg/kg
same,"ML residue in milk fat, Day 14",[1]; [9],0.17 mg/kg and 0.37 mg/kg and 0.47 mg/kg and 0.15 mg/kg
same,"ML residue in milk fat, Day 21",[1]; [9],0.091 mg/kg and 0.12 mg/kg and 0.14 mg/kg and 0.057 mg/kg
